Laboratory results taken from patent US11357232B2, “Methods of improving soil health, growth and vigor of perennial grass communities” (Edaphix, LLC, priority 2013, dated 2022).

Columns and labels:
[1] = test system: native perennial grasses; details: in vivo
Source text: (§5) The prevalence of various invasive species including cheatgrass, dandelions, and perennial noxious weeds (forbs) was observed and correlated with soil copper contamination levels measured at various sites.

[2] = test system: invasive species including cheatgrass, dandelions, and perennial noxious weeds; assay: Plant community survey in area contaminated with copper from a copper smelter (Example 22); type: in vivo; details: soil copper contamination levels measured at various sites
Source text: as §5

[3] = test system: French marigold; details: in vivo; cited from earlier work
[4] = test system: dandelions; assay: Plant community response at Anaconda Smelter Superfund site; type: in vivo; details: where moderate to high levels of water soluble copper and zinc are measured in the soil
[5] = test system: spotted knapweed; assay: as above; type: in vivo; details: gradient of water soluble copper and zinc in soil
[6] = test system: chlorophyllitic plants; assay: Photosynthetic disruption by glyphosate; type: in vivo
Protocol: Extensive research has documented that plants are often sensitive to relatively minute concentrations or exposures to unique synthetic compounds or combinations of naturally occurring elements, including micro-nutrients. For example, glyphosate (aka ROUNDUP®, a synthetic Monsanto product) is effective at causing photosynthetic disruption in chlorophyllitic plants at an application rate of as little as 0.75 pounds active ingredient per acre, which equates to only approximately 8 mg/square foot of application, equivalent to approximately 14 ppm application rate. The American Phytopathological Society (APS) reported that micronutrients are generally toxic when present in high amounts, although ‘high concentrations’ are not clearly defined, and little toxicity have been reported at exceptionally low micro-nutrient concentrations. This occurrence is known as micro-nutrient toxicity syndrome (MTS). […] In addition, plants can vary considerably from species to species in their susceptibility to nutrient toxicities. For example, Lee and others (1996) reported inducing seed geranium (Pelargonium x hortorum) micronutrient toxicity symptoms by applying nutrient solutions containing 0.5 mg/L B, Cu, or Zn, or as little as 0.25 mg/L Mo, in combination with nitrogen, phosphorus, and potassium. […]

[7] = test system: chlorophyllitic plants; details: as little as; cited from earlier work
[8] = test system: seed geranium (Pelargonium x hortorum); details: in combination with nitrogen, phosphorus, and potassium; cited from earlier work
[9] = test system: invasive plant species; assay: Hypothetical dose-response testing of invasive species on a rangeland site (Example 21); type: in vivo; details: for biomass reduction: zinc-sensitive invasive species
Protocol: In this example, a rangeland site has become colonized by three invasive species. From dose-response testing it can be determined that 2 of the invasive species can be controlled by boron fertilization while the third is tolerant of boron, but not zinc. Of the two boron-sensitive invasive plant species, one is intolerant to a soil solution level of 3 mg boron per liter, while the other is sensitive to 7 milligrams per liter.

[10] = test system: humans; details: U.S. EPA, 2005 carcinogen assessment guidelines; cited from earlier work
[11] = test system: perennial grass; assay: Rangeland site five-year study, surface liquid boron applications (Example 4); type: in vivo; details: treated area
[12] = test system: cheatgrass, dandelion, spotted knapweed and Kentucky bluegrass seed; assay: Benchtop seed germination in covered petri dishes with boron solutions (Example 8); type: in vivo; details: boron concentrations reached 25 mg/L; ten days after treatment
Protocol: Germination percentage of cheatgrass, dandelion, spotted knapweed and Kentucky bluegrass seed was measured ten (10) days after treatment with solutions of increasing boron concentration (FIG. 8).

[13] = test system: perennial grass (several species); assay: Field trial of boron fertilization in existing perennial grass communities near Belgrade, Mont.; type: in vivo; details: over 5 year period after a single application of boron fertilizer; increased from 42%
Protocol: (§1) Field trials were established in existing perennial grass communities near Belgrade, Mont., with high levels of cheatgrass and dandelion invasion into existing perennial grasses to examine use of boron (elemental symbol: B) fertilization for weed control. Minute amounts of boron, in doses as low as 5 mg B/L (soluble) or 2-3 lbs B (dry) active ingredient per acre, were applied to the plots.
(§2) Over the same period of time dandelion cover decreased from a mean of 59% to 15%, and cheatgrass cover decreased from a mean of 47% to 1%, while perennial grass cover increased from 42% to 71%.
(§3) Formulation D, Using the boron-containing compound Na2B4O7.10 H20, the 0.5 mg/L soil concentration applied in the field experiment described in Example 1 was attained by adding 2.55 grams per 100 square foot. The 50 mg/L soil concentration was attained by adding 255 grams per 100 square feet. These concentrations were applied either dry or by dissolving the boron-containing compound in water and then applied as a liquid to field plots.

[14] = test system: cheatgrass (Bromus tectorum); assay: as above; type: in vivo
Protocol: as §1, §2, §3

[15] = test system: dandelion (Taraxacum officinale); assay: as above; type: in vivo; details: over 5 year period after a single application of boron fertilizer; decreased from a mean of 59%
Protocol: as §1, §2, §3

[16] = test system: cheatgrass (Bromus tectorum); assay: Cheatgrass-affected rangeland site two-year study, surface liquid boron applications (Example 5); type: in vivo; details: treated rangeland site
Source text: At a cheatgrass-affected rangeland site plant cover over a two-year study period is shown in response to water soluble soil boron concentrations resulting from surface liquid boron applications. Perennial grass cover in the treated rangeland site was increased to between 60 and 70 percent cover while cheatgrass cover decreased and was less than 3% (FIG. 5A) while adjacent untreated rangeland had less perennial grass cover and more cheatgrass after 2 years. (Soil sampling of the 0-6 inch depth was performed annually over a five year period to determine the water soluble boron concentrations both in the treated and untreated areas (FIG. 5B). Transects were used to measure plant cover annually at sites co-located with soil sampling.

[17] = test system: cheatgrass seed; assay: Benchtop seed germination in covered petri dishes with boron solutions (Example 8); type: in vivo, Bromus tectorum; details: boron 5 to 50 mg/L; 20 seeds; ten days after treatment
Protocol: Germination percentage of cheatgrass, dandelion, spotted knapweed and Kentucky bluegrass seed was measured ten (10) days after treatment with solutions of increasing boron concentration (FIG. 8). Cheatgrass appeared most sensitive to boron solution resulting in essentially 100% death of 20 cheatgrass seeds in covered petri dishes, when treated with solutions with boron concentration ranging from 5 to 50 mg/L. Control treatment using tap water successful germination percentage exceeded 56%.

[18] = test system: bluebunch wheatgrass (Pseudoroegenaria spicata); details: in vivo
Protocol: (§6) In a greenhouse pot study Kentucky bluegrass, bluebunch wheatgrass, cheatgrass, dandelion and spotted knapweed were grown from seed in potting soil for a period of approximately 26 weeks. Plants were watered with tap water for the first 24 weeks and then 3 times with boron solutions during the final 2 weeks of the study. Boron concentrations used were 5, 10, 25 and 50 mg B/L in addition to a tap water treatment and a commercial plant fertilizer solution.

[19] = test system: cheatgrass seed; assay: Greenhouse petri dish cheatgrass seed germination experiment; type: in vivo, Bromus tectorum
Protocol: Greenhouse petri dish experiments were completed to evaluate the effect of minute concentrations of boron on cheatgrass seed germination. Treatment concentrations (in addition to a zero treatment control) ranged from 10 to 50 mg B/L dissolved in distilled water. […] A follow-up experiment, essentially repeating the previously described petri dish experiment, with inclusion of a treatment rate as low as 5 mg/L, was completed. It was observed that cheatgrass seeds germinated at the 5 mg/L concentration, with death of the seedlings occurring within 7 days of germination (data not shown).

[20] = test system: spotted knapweed (Centaurea maculosa); assay: Greenhouse pot study watered with boron solutions; type: in vivo
Source text: (§4) Greenhouse pot irrigation study, Bozeman, Mont. (FIG. 6).

[21] = test system: cheatgrass (Bromus tectorum); assay: Greenhouse pot study watered with boron solutions; type: in vivo; details: increasing boron concentrations
Source text: as §4

[22] = test system: dandelion (Taraxacum officinale); assay: Greenhouse pot study watered with boron solutions; type: in vivo
Source text: as §4

[23] = test system: Kentucky bluegrass (Poa pratensis); assay: Greenhouse pot study watered with boron solutions; type: in vivo; details: increasing boron concentrations
Source text: as §4

[24] = test system: bluebunch wheatgrass (Pseudoroegenaria spicata); assay: Greenhouse pot study watered with boron solutions; details: watered 3 times in final 2 weeks
Protocol: as §6

[25] = increasing boron concentrations
[26] = lowest boron solution concentration used, 5 mg B/L, watered 3 times in final 2 weeks

Question: With `[Cu]` [copper] as the compound, how does the “tolerance of native perennial grasses to soil copper” value [1] read?
Answer: tolerate higher copper soil levels

Question: What about the “occurrence of invasive species versus soil copper” value [2] of the same compound?
Answer: primarily observed at lower copper contamination sites

Question: And the “concentration inducing micro-nutrient toxicity” value [3]?
Answer: 4000 ng/mL

Question: And the occurrence of dandelions [4]?
Answer: not found

Question: What about the “occurrence of spotted knapweed” value [5] of the same compound?
Answer: found growing in soils with low to high levels

Question: For `O=C(O)CNCP(=O)(O)O` [glyphosate], which “effective application rate, equivalent per area” value ([6]; equates to 0.75 pounds active ingredient per acre) is on record?
Answer: approximately 8 mg/square foot

Question: And the “effective application rate, equivalent” value ([6]; equivalent to 0.75 pounds active ingredient per acre)?
Answer: approximately 14 ppm

Question: And the “application rate effective at causing photosynthetic disruption” value [7]?
Answer: 0.75 pounds active ingredient per acre

Question: For `[Mn+2]` [manganese], which “concentration inducing micro-nutrient toxicity” value [3] is on record?
Answer: 1000 ng/mL

Question: Which “concentration inducing micro-nutrient toxicity” value [3] does the source give for `[Mo]` [molybdenum] here?
Answer: 5000 ng/mL

Question: What does the source list for `[Zn]` [zinc]?
Answer: nutrient solution concentration inducing micronutrient toxicity symptoms [8]: 0.5 mg/L; occurrence of dandelions [4]: not found; biomass reduction ([9]; 0.4 mg zinc per liter): 38%; biomass reduction ([9]; 0.9 milligrams per liter): 89%; occurrence of spotted knapweed [5]: found growing in soils with low to high levels

Question: Which carcinogenicity classification [10] does the source give for borate salts here?
Answer: not likely to be carcinogenic to humans

Question: With boron as the compound, how does the perennial grass densities [11] read?
Answer: increase over time

Question: What about the “germination of any species” value [12] of the same compound?
Answer: Very little germination

Question: And the perennial grass cover [13]?
Answer: 71%

Question: And the “emerging or mature cheatgrass plants in plots” value ([14]; following growing seasons, doses as low as 5 mg B/L or 2-3 lbs B per acre)?
Answer: near-total absence

Question: What about the mean cheatgrass cover ([14]; over 5 year period after a single application of boron fertilizer, decreased from a mean of 47%) of the same compound?
Answer: 1%

Question: What about the mean dandelion cover [15] of the same compound?
Answer: 15%

Question: What about the cheatgrass cover [16] of the same compound?
Answer: less than 3%

Question: What about the “death of cheatgrass seeds” value [17] of the same compound?
Answer: ~100%

Question: And the “concentration inducing micro-nutrient toxicity” value [3]?
Answer: 500 ng/mL

Question: And the “plant health index (color and vigor) response” value (“plant health index” for short) [18]?
Answer: little change in plant health

Question: And the “cheatgrass seed germination (observation)” value ([19]; 5 mg/L, follow-up experiment)?
Answer: germinated

Question: And the “death of seedlings, time after germination” value ([19]; 5 mg/L, follow-up experiment)?
Answer: ≤ 7 days

Question: What about the cheatgrass seed germination ([19]; 10 to 50 mg B/L in distilled water, after 14 days) of the same compound?
Answer: zero

Question: What about the cheatgrass seed germination ([19]; boron solution 10 mg/L, 14 days post treatment (FIG. 2B)) of the same compound?
Answer: 0%

Question: And the “plant health index” value [20, 25]?
Answer: declined in vigor

Question: And the “rate of decline in plant health compared with other species” value ([20]; increasing solution boron concentration)?
Answer: most rapid decline in plant health

Question: And the phytotoxic response [20, 26]?
Answer: marked phytotoxicity

Question: What about the “plant health index” value [21] of the same compound?
Answer: declined in vigor

Question: And the “plant health index” value [22, 25]?
Answer: declined in vigor

Question: What about the phytotoxic response [22, 26] of the same compound?
Answer: marked phytotoxicity

Question: And the “plant health index” value [23]?
Answer: declined in vigor

Question: And the “soil solution level to which invasive species is intolerant” value ([9]; first boron-sensitive invasive species)?
Answer: 3 mg boron per liter

Question: And the “soil solution level to which invasive species is sensitive” value ([9]; second boron-sensitive invasive species)?
Answer: 7 milligrams per liter

Question: What about the tolerated boron concentration [24] of the same compound?
Answer: ≥ 50 mg B/L
